The record followed here is publication PMC12583094, “A novel antioxidant peptide from black soybean [Glycine max (L.) Merr.] with verified MPO interaction and multi-scale antioxidant activity” (Frontiers in Nutrition, 2025).

Holding throughout (type): cell-based, human
Series [1] deals with HaCaT cells. Kind of series: ROS quantification in H2O2-treated HaCaT cells (DCFH-DA). The settings on record: 500 μg/mL H2O2 1 h, no peptide; DCFH-DA fluorescence 488/525 nm normalized per mg protein; p < 0.0001 vs control (541.25 ± 25.03 AU); mean ± SD, n = 3. As for the experimental part:
After digestion and resuspension, HaCaT cells were seeded into a 6-well plate at a concentration of 1 × 10^4 cells/ml, with 2 mL of culture medium added to each well. The cells were incubated for 24 h to allow attachment and adaptation. After 24 h, the cells were divided into treatment groups. The control and blank groups were replaced with an equal volume of normal culture medium, while the treatment group was incubated with a 1,000 μg/mL peptide solution for 24 h. After that, both the control and treatment groups were treated with 500 μg/mL H2O2 and incubated for an additional 1 h.
After incubation, the medium was discarded, and DCFH-DA probe was diluted in serum-free medium at a 1:1000 ratio. Then, 1.5 mL of the diluted solution was added to each well, and the cells were incubated at 37 °C in the dark for 20 min. The blank group was treated with an equal volume of serum-free medium. […] The fluorescence intensity was measured using a fluorescence spectrophotometer with an excitation wavelength of 488 nm and an emission wavelength of 525 nm. The total protein concentration of each sample was determined using the BCA method. The fluorescence value was then normalized to the fluorescence intensity per milligram of protein, and the results were statistically analyzed.

Series [2] has as its system HaCaT cells. Kind of series: CCK8 cell viability, concentration screening in HaCaT cells. The note with it: 1 h. As for the experimental part: (§1) HaCaT cell recovery, culture, and subculture were performed with reference to the method described by Yusha Zi et al., with some modifications ([23]). For recovery, cryopreserved HaCaT cells were retrieved from liquid nitrogen storage and quickly thawed in a 37 °C water bath with gentle shaking. Just before complete thawing, the tube was removed from the water bath, and the cell suspension was immediately transferred into a 15 mL centrifuge tube containing 9 mL of pre-warmed complete medium. The complete medium consisted of DMEM supplemented with 10% fetal bovine serum (FBS) and 1% penicillin–streptomycin (P/S). Cells were centrifuged at 800 rpm for 5 min at 4 °C. After discarding the supernatant, the cell pellet was resuspended in 5 mL of fresh complete medium and transferred to a culture flask equipped with a ventilated cap. Cells were incubated in a humidified incubator at 37 °C with 5% CO₂ and 95% humidity.
For subculturing, when cell confluence reached approximately 80%, the medium was discarded, and the cells were gently rinsed three times with 2 mL of PBS. Then, 1 mL of 0.25% trypsin solution was added, and the flask was incubated at 37 °C for about 1 min. Once the cells became round and partially detached (as observed under a microscope), 3 mL of complete medium was added to terminate the digestion. The cell suspension was gently pipetted to disperse the cells and transferred to a 15 mL centrifuge tube. After centrifugation at 800 rpm for 5 min at 4 °C, the supernatant was discarded. The pellet was resuspended in fresh medium and seeded into new culture flasks at a ratio of 1:3, followed by incubation under the same culture conditions.
After digestion and resuspension, HaCaT cells were seeded into a 96-well plate at a concentration of 1 × 10^^4 cells/ml, with 100 μL of complete culture medium added to each well. Three wells with no cells were treated with an equal volume of complete culture medium as the blank group. The cells were incubated for 24 h to allow attachment. For the experiment, the control and blank groups were replaced with an equal volume of fresh medium, while the treatment groups were treated with a concentration gradient of 100, 200, 500, 1,000, and 1,500 μg/mL H2O2 and peptide samples. The H2O2 group was incubated for 1 h, while the peptide sample group was incubated for 24 h. After incubation, the original medium was discarded, and 100 μL of CCK8 working solution (prepared from 90% DMEM + 10% CCK8 reagent) was added to each well. The blank group, which contained no cells, was used as the reference. The plate was incubated for an appropriate period, and the absorbance at 450 nm was measured using a microplate reader. Cell viability was calculated using the following formula:
Cell viability(%)=100%×(ODsample−ODblank)/(ODcontrol−ODblank).

The subject of series [3] is HaCaT cells. The note with it: 500 μg/mL H2O2 1 h, no peptide; CCK8, 450 nm; p < 0.0001 vs control; mean ± SD, n = 3. The procedure:
as §1, with “humidity. For subculturing, when cell confluence reached approximately 80%, the medium was discarded, and the cells were gently rinsed three times with 2 mL of PBS. […] The plate was incubated for an appropriate period, and the absorbance at 450 nm was measured using a microplate reader. Cell viability was calculated using the following formula: Cell viability(%)=100%×(ODsample−ODblank)/(ODcontrol−ODblank). […] The absorbance was measured and cell viability was calculated under the same conditions.” for “humidity.”

The structures appear in SMILES notation.

For the compound `OO` [H₂O₂, hydrogen peroxide], the “ROS level, H2O2 alone” value in the series on HaCaT cells [1] is reported as 2128.33 ± 127.37 AU. The “effect on HaCaT cell viability at 200 μg/mL H2O2” value in the series on HaCaT cells [2] (H2O2 200 μg/mL, CCK8, vs control, p < 0.01) is listed as “A significant reduction”. Further, the “HaCaT cell viability after 500 μg/mL H2O2 (screening)” value in the series on HaCaT cells [2] (H2O2 500 μg/mL, CCK8, 450 nm, mean ± SD, n = 3) came out at 49.05 ± 4.24%. Besides, the “dead HaCaT cells at 1500 μg/mL H2O2” value with HaCaT cells [2] (H2O2 1500 μg/mL, CCK8, 450 nm) is “over 90%”. Besides, the “HaCaT cell viability, H2O2 alone” value in the series with HaCaT cells [3] was found to be 47.82 ± 1.87%.
